target: BACE1 (Homo sapiens (Human), UniProt P56817); experiment: BACE1 efficacy assay (FRET-based, commercial BACE1 kit); type: biochemical; details: test compound 10 μM
Method: The efficacy assay was performed as a FRET-based assay using a commercially available BACE1 kit (Life Technologies, P2985). 2 μl test compound at 10 μM (final concentration) and 15 μl BACE1 enzyme from the kit (final concentration 3 nM) were preincubated for 15 minutes at room temperature before addition of 15 μl of substrate from the kit (250 nM final concentration) and incubated for additional 90 minutes at room temperature. The assay plate was subsequently read in a Pherastar (Ex540/Em590). The enzyme activity observed in presence of test compound were normalized to the enzyme activity observed in presence of buffer and 10 μM (final concentration) of the high affinity BACE1 reference inhibitor (S)-6-[3-Chloro-5-(5-prop-1-ynyl-pyridin-3-yl)-thiophen-2-yl] -2-imino-3,6-dimethyl-tetra-hydropyrimidin-4-one, respectively. The efficacy of the test compounds was evaluated at 10 μM (final concentration) and defined as the percent inhibition of the enzyme activity using the equation %inhibition=100% -normalized enzyme activity in percent.

BACE1, sequence (P56817 46-501): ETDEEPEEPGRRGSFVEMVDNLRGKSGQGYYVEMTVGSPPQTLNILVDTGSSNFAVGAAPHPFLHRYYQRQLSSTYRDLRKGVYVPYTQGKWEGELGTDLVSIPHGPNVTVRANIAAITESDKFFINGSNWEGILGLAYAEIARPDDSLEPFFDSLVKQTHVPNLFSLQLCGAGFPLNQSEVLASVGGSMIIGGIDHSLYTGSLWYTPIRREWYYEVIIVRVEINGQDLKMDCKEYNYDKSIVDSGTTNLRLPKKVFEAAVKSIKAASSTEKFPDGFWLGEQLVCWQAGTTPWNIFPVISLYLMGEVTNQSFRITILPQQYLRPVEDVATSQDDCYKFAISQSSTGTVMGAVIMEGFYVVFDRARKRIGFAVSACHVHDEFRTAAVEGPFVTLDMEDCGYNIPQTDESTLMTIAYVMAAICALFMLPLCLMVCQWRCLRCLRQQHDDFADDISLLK

Row | SMILES | inhibition at 10 µM
1 | Cc1nc(C(=O)Nc2ccc(F)c([C@@]3(C(F)F)N=C(N)CCC3(F)F)c2)co1 [Compound 4, (S)-N-(3-(6-amino-2-(difluoromethyl)-3,3-difluoro-2,3,4,5-tetrahydropyridin-2-yl)-4-fluorophenyl)-2-methyloxazole-4-carboxamide] | 104%
2 | COc1ccc(C(=O)Nc2ccc(F)c([C@@]3(C(F)F)N=C(N)CCC3(F)F)c2)nc1 [Compound 5, (S)-N-(3-(6-amino-2-(difluoromethyl)-3,3-difluoro-2,3,4,5-tetrahydropyridin-2-yl)-4-fluorophenyl)-5-methoxypicolinamide] | 101%
3 | NC1=N[C@@](c2cc(NC(=O)c3ccc(F)cn3)ccc2F)(C(F)F)C(F)(F)CC1 [Compound 2, (S)-N-(3-(6-amino-2-(difluoromethyl)-3,3-difluoro-2,3,4,5-tetrahydropyridin-2-yl)-4-fluorophenyl)-5-fluoropicolinamide] | 100%
4 | NC1=N[C@@](c2cc(NC(=O)c3cnc(C(F)F)cn3)ccc2F)(C(F)F)C(F)(F)CC1 [Compound 6, (S)-N-(3-(6-amino-2-(difluoromethyl)-3,3-difluoro-2,3 ,4,5-tetrahydropyridin-2-yl)-4-fluorophenyl)-5-(difluoromethyl)pyrazine-2-carboxamide] | 103%
5 | COc1cnc(C(=O)Nc2ccc(F)c([C@@]3(C(F)F)N=C(N)CCC3(F)F)c2)cn1 [Compound 3] | 103%
6 | NC1=N[C@@](c2cc(NC(=O)c3ccc(Cl)cn3)ccc2F)(C(F)F)C(F)(F)CC1 [Compound 1, (S)-N-(3-(6-amino-2-(difluoromethyl)-3,3-difluoro-2,3,4,5-tetrahydropyridin-2-yl)-4-fluorophenyl)-5-chloropicolinamide] | 106%

Results, then the compound that gave them:

Row | inhibition at 10 µM | SMILES
7 | 103% | [2H]C([2H])([2H])Oc1ccc(C(=O)Nc2ccc(F)c([C@@]3(C(F)F)N=C(N)CCC3(F)F)c2)nc1 [Compound 13, (S)-N-(3-(6-amino-2-(difluoromethyl)-3,3-difluoro-2,3,4,5-tetrahydropyridin-2-yl)-4-fluorophenyl)-5-(methoxy-d3)picolinamide]
8 | 102% | Cc1csc(C(=O)Nc2ccc(F)c([C@@]3(C(F)F)N=C(N)CCC3(F)F)c2)n1 [Compound 8, (S)-N-(3-(6-amino-2-(difluoromethyl)-3,3-difluoro-2,3,4,5-tetrahydropyridin-2-yl)-4-fluoro-phenyl)-4-methylthiazole-2-carboxamide]
9 | 106% | COc1cnc(C(=O)Nc2ccc(F)c([C@@]3(C(F)F)N=C(N)CCC3(F)F)c2)c(C)n1 [Compound 10, (S)-N-(3-(6-amino-2-(difluoromethyl)-3,3-difluoro-2,3,4,5-tetrahydropyridin-2-yl)-4-fluorophenyl)-5-methoxy-3-methylpyrazine-2-carboxamide]
10 | 108% | [2H]C([2H])([2H])Oc1cnc(C(=O)Nc2ccc(F)c([C@@]3(C(F)F)N=C(N)CCC3(F)F)c2)cn1 [Compound 14, (S)-N-(3-(6-amino-2-(difluoromethyl)-3,3-difluoro-2,3,4,5-tetrahydropyridin-2-yl)-4-fluorophenyl)-5-(methoxy-d3)pyrazine-2-carboxamide]
11 | 103% | COc1cnc(C(=O)Nc2ccc(F)c([C@@]3(C(F)F)N=C(N)CCC3(F)F)c2)nc1 [Compound 9, (S)-N-(3-(6-amino-2-(difluoromethyl)-3,3-difluoro-2,3,4,5-tetrahydropyridin-2-yl)-4-fluorophenyl)-5-methoxypyrimidine-2-carboxamide]
